In one assay the test system is male FX mice. As to the kind of experiment: Spontaneous locomotor activity assay (photobeam breaks, dark phase). The format is in vivo, mouse. The following applies: male FX mice (B6.129P2-Fmr1tm1Cgr/J); nor-BNI 20 mg/kg or MPH 0.75 mg/kg intraperitoneal; measured between 7 pm and 7 am. The text has this:
(§1) The B6.129P2-Fmr1^tm1Cgr/J strain of mouse was used in the studies as it is a widely used mouse model of FX (Kazdoba et al. Intractable Rare Dis. Res. 2014, 3, 118), and C57BL/6J mice were used as the control strain of mice. Mice were housed 2-4 per cage and maintained on a “reversed” light cycle (lights-off at 7 am and lights-on at 7 pm). They were habituated to the investigator by extensive handing for at least one week prior to the beginning of behavioral analyses. Additionally, they were habituated to the behavioral test room for at least 30 min prior to the behavioral testing, and testing was conducted under dim red light.
(§2) The mice underwent a battery of tests starting on postnatal day 60 (P60). Behavioral analyses included measurements of spontaneous locomotor activity, working memory, attention, and social interactions. Approximately 12 male and/or female mice were used for each behavioral test.
Spontaneous locomotor activity was assayed by using a testing chamber with photobeam motion sensors (Photobeam Activity Systems, San Diego Instruments, San Diego, Calif.). […] Photobeam breaks were recorded, scored as an ambulatory event, and grouped into hourly activity measurements for statistical analysis. Cumulative activity over the 12 hour “dark phase” was calculated. […]

The test system of another assay is FX mice. As to the kind of experiment: Cliff avoidance reflex (CAR) test for motor impulsivity. In kind it is in vivo, mouse. The following applies: 20 mg/kg intraperitoneal, 30 min test, 5 min intervals.
Text: as §1, §2
Motor-impulsivity was assayed using a cliff avoidance reflex (CAR) test. The apparatus consists of a round Plexiglas platform (20 cm in diameter) supported by an iron rod (50 cm in height). The mouse is placed on the platform and observed over a period of 30 min. If the mouse falls off the platform during the 30 min period, it is picked up and returned to the platform to complete the test. The number of falls is recorded, and the data are analyzed at 5 min intervals.

The results in this text go back to patent US11491144B2, “Methods of treating fragile X mental retardation syndrome” (The Florida State University Research Foundation, …, priority 2018, dated 2022).

In the case of `COC(=O)C(c1ccccc1)C1CCCCN1` (stereo not shown) [Methylphenidate, methylphenidate], the “Spontaneous locomotor activity compared to saline” value with male FX mice is listed as “did not produce significant effects”.
In the case of `Oc1ccc2c3c1O[C@H]1c4[nH]c5c(c4C[C@@]4(O)[C@@H](C2)N(CC2CC2)CC[C@]314)C[C@@]1(O)[C@H]2Cc3ccc(O)c4c3[C@@]1(CCN2CC1CC1)[C@H]5O4` [nor-BNI, norbinaltorphimine], the figures for the “Time course of cliff avoidance reflex” value with FX mice (female FX mice) and with FX mice (male FX mice) were “improved the time course of cliff avoidance reflex” and “did not produce significant effects”, respectively. The “Spontaneous locomotor activity compared to saline” value with male FX mice is recorded as “significant reduction in activity”.
